{"source": "paper PMC12816581", "about": "(Nature Communications, 2025)", "key": {"PRMT5": {"molecular_target": "PRMT5 (Homo sapiens, UniProt O14744)", "sequence (O14744 whole entry)": "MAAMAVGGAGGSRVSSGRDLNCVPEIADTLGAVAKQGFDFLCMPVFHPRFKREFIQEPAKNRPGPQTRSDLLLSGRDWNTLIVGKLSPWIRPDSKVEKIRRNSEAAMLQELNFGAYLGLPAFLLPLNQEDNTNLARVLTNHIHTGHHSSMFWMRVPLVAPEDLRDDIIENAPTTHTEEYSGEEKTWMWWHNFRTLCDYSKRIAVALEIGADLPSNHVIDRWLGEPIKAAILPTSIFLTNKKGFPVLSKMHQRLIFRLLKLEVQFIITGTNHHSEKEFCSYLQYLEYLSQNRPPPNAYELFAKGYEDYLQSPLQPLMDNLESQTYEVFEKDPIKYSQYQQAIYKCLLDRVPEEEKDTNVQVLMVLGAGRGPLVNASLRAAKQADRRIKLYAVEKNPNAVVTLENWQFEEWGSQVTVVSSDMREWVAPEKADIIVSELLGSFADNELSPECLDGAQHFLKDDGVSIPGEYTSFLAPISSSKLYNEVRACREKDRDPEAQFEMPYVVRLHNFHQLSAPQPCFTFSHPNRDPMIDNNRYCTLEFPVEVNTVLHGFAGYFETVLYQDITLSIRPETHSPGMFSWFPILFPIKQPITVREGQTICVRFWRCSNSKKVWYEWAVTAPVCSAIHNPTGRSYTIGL", "sequence (Q9BQA1 whole entry partner)": "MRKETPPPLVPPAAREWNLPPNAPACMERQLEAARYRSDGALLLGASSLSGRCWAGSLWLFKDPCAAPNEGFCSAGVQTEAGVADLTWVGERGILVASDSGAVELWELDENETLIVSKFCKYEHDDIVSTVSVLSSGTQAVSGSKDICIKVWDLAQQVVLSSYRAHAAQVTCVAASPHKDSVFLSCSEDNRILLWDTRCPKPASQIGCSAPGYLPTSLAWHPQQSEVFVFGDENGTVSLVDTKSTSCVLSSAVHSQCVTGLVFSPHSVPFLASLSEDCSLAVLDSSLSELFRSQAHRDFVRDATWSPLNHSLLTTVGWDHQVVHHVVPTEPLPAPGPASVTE", "assay": "E-ASMS affinity selection", "assay_type": "binding"}, "DCAF1": {"molecular_target": "DCAF1 (Homo sapiens, UniProt Q9Y4B6)", "sequence (Q9Y4B6 whole entry)": "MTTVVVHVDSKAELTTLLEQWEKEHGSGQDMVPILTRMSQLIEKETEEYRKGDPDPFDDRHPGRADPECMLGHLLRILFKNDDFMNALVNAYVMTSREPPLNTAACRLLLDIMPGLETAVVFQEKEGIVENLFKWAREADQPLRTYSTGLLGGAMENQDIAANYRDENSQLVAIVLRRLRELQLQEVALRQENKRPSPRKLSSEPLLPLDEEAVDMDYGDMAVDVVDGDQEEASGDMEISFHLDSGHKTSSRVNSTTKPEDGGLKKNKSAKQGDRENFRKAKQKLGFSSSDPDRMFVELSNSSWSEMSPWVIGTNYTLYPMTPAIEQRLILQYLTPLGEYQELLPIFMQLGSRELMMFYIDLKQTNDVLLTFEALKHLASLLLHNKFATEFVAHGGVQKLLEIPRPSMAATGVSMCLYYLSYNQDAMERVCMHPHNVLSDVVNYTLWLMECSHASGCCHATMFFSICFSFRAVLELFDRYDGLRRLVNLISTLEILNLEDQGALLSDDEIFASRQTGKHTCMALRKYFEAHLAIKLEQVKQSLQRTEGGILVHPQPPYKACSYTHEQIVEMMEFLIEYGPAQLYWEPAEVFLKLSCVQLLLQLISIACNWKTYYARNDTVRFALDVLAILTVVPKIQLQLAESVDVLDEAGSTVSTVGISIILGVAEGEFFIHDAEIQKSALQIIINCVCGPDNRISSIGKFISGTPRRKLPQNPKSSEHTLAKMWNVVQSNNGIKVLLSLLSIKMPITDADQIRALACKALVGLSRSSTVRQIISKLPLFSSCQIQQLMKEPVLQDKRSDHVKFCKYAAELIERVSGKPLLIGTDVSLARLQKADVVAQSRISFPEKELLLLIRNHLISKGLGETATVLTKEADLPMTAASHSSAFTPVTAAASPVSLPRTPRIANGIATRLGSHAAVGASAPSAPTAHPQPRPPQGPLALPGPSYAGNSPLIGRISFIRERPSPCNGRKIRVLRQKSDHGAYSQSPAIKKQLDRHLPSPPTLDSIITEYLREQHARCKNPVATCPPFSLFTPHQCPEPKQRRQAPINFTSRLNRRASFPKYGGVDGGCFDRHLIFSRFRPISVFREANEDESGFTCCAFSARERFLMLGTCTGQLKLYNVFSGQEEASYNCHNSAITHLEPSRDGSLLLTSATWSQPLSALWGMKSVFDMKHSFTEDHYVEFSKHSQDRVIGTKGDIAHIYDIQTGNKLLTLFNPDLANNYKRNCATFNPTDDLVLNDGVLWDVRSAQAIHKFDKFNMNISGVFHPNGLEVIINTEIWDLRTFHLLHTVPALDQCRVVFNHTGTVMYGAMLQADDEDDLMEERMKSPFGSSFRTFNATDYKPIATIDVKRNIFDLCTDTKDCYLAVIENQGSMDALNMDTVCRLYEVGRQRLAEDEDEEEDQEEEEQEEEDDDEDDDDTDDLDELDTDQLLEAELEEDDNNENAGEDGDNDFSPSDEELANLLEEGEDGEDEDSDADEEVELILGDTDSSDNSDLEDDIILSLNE", "assay": "E-ASMS affinity selection", "assay_type": "binding", "conditions": "DCAF1 beads, negative control protein"}, "USP21": {"molecular_target": "T1, USP21 (Homo sapiens, UniProt Q9UK80)", "T1 sequence (Q9UK80 1-565)": "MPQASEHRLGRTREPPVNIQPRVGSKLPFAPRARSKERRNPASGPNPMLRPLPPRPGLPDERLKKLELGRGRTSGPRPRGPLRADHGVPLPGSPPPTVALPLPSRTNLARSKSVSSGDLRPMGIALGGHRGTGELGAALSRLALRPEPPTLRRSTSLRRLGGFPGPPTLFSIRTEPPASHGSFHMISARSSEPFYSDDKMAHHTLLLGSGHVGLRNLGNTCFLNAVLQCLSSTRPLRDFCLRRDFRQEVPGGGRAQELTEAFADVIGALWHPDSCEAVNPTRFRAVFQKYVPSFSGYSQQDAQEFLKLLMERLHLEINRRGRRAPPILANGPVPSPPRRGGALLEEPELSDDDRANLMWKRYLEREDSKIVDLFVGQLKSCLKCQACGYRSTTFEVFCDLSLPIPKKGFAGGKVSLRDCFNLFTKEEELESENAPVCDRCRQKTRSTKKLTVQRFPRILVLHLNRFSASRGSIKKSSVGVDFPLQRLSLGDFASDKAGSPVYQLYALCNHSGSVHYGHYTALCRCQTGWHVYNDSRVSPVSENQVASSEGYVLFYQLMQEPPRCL", "assay": "E-ASMS affinity selection", "assay_type": "binding", "conditions": "USP21 beads, negative control protein"}, "[1]": {"assay": "Chiral stability assessment via hydrogen-deuterium", "assay_type": "physicochemical", "conditions": "binding buffer with D2O, 4 °C, 8 h; indicates potential spontaneous racemization"}, "WDR91": {"molecular_target": "T2, WDR91 (Homo sapiens, UniProt A4D1P6)", "T2 sequence (A4D1P6 1-747)": "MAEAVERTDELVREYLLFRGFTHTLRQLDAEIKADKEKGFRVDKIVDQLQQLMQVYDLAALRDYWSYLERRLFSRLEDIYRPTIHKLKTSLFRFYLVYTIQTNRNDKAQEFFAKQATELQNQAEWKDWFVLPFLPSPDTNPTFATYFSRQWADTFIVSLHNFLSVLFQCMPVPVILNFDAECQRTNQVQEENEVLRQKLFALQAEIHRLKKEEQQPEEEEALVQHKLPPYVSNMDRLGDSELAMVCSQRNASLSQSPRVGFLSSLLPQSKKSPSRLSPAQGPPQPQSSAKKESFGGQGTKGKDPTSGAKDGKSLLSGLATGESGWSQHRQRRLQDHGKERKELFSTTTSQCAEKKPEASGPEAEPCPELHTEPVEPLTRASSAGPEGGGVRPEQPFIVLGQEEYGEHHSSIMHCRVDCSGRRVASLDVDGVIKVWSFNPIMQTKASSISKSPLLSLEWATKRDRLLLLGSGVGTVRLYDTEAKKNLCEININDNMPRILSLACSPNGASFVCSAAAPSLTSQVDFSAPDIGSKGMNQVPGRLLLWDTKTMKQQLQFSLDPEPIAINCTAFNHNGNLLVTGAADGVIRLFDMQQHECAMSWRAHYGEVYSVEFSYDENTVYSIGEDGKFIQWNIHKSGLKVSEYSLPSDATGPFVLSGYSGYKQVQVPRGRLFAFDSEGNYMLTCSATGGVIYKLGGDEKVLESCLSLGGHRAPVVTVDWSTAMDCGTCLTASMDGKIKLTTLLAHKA", "assay_type": "binding"}, "WDR55 [2]": {"molecular_target": "T3, WDR55 (Homo sapiens, UniProt Q9H6Y2)", "T3 sequence (Q9H6Y2 1-383)": "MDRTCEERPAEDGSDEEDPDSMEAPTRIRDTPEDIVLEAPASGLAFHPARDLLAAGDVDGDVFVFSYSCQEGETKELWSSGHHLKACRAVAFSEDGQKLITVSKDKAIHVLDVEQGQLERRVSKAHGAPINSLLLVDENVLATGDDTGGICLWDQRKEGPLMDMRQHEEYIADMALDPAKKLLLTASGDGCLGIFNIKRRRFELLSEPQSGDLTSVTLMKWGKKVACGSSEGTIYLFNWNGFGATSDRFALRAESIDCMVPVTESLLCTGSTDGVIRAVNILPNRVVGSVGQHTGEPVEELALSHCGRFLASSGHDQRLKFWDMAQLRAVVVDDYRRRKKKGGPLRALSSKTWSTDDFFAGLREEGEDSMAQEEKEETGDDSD", "assay_type": "binding"}, "WDR55 [3]": {"molecular_target": "T3, WDR55", "assay": "biochemical", "assay_type": "binding"}, "DDB1": {"molecular_target": "DDB1 (Homo sapiens, UniProt Q16531)", "sequence (Q16531 whole entry)": "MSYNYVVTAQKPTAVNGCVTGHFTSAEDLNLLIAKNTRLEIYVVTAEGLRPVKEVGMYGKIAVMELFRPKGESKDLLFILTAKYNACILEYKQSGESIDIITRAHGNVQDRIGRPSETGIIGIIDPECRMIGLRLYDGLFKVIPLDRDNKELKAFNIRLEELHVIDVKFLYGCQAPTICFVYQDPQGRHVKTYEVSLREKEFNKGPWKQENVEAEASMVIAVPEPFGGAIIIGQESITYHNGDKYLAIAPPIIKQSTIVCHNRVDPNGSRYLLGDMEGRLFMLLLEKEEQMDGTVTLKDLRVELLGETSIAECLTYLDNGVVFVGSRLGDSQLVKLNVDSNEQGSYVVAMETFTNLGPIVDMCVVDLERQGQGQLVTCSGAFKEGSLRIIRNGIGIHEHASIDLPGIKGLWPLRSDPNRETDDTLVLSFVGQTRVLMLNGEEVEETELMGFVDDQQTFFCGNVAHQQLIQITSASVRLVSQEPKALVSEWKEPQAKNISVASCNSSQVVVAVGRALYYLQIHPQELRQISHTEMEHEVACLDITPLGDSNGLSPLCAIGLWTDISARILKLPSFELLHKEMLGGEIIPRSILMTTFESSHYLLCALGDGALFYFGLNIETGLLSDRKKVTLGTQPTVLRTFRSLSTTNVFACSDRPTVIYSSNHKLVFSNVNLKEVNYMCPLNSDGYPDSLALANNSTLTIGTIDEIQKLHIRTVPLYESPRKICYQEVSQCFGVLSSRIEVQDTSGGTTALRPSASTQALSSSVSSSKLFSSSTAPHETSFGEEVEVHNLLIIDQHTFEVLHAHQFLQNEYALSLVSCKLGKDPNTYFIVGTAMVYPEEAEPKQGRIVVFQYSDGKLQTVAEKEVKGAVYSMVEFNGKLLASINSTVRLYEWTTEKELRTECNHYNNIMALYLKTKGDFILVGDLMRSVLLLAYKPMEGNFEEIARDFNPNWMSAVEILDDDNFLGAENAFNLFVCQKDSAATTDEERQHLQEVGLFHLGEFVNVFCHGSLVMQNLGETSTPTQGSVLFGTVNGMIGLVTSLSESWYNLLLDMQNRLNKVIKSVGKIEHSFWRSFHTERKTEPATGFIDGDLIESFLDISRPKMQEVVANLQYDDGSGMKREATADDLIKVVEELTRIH", "assay": "E-ASMS affinity selection", "assay_type": "binding"}}}
{"smiles": "Nc1ncnc2c1ccn2[C@@H]1O[C@H]([C@H](O)c2ccccc2)[C@@H](O)[C@H]1O", "note": "[(S)-LLY283]", "values": [{"measurement": "Enantioselective enrichment (chiral chromatography of eluate)", "setting": "PRMT5; PRMT5 eluate", "value": "Enantioselective enrichment"}]}
{"smiles": "Nc1cccc2c1CN(C1CCC(=O)NC1=O)C2=O", "note": "(stereo not drawn) [Lenalidomide, lenalidomide]", "values": [{"measurement": "Enrichment in methanol eluate (E-ASMS)", "setting": "DCAF1", "value": "no significant enrichment"}, {"measurement": "Enrichment in methanol eluate (E-ASMS)", "setting": "USP21", "value": "no significant enrichment"}, {"measurement": "Enrichment in methanol eluate (E-ASMS)", "setting": "PRMT5; PRMT5 beads, negative control protein", "value": "no significant enrichment"}]}
{"smiles": "CN1C(=O)C(c2c(-c3ccc(Cl)cc3)[nH]c3c2c(=O)[nH]c(=O)n3C)c2ccccc21", "note": "(stereo not drawn) [XS381295]", "values": [{"measurement": "Deuterium incorporation (H/D exchange)", "setting": "[1]", "value": "showed deuterium incorporation"}, {"measurement": "Enantioselective binding (chiral chromatography of eluate)", "setting": "WDR91; WDR91-bead eluate", "value": "did not show enantioselectivity"}, {"measurement": "Enrichment in methanol eluate (E-ASMS)", "setting": "WDR91; WDR91 beads vs other proteins screened in parallel", "value": "enriched"}]}
{"smiles": "CC1Cc2cc(-c3ccnc4ncnn34)ccc2O1", "note": "(stereo not drawn) [XS381774]", "values": [{"measurement": "Enantioselective binding (chiral chromatography of eluate)", "setting": "WDR55 [2]; WDR55-bead eluate", "value": "displayed enantioselectivity"}, {"measurement": "Enrichment in methanol eluate (E-ASMS)", "setting": "WDR55 [2]; WDR55 beads", "value": "enriched"}, {"measurement": "Kd", "setting": "WDR55 [3]", "value": 11, "unit": "µM"}]}
{"smiles": "CCOc1cccc(C2CC(=O)Nc3c2c(C)nn3-c2ccc3nncn3n2)c1", "note": "(stereo not drawn) [XS381952]", "values": [{"measurement": "Enantioselective enrichment (chiral chromatography of eluate)", "setting": "DDB1; DDB1-bead eluate vs ratio of enantiomers in starting library", "value": "one of the two enantiomers was clearly enriched"}, {"measurement": "Enrichment in methanol eluate (E-ASMS)", "setting": "DDB1; DDB1 beads vs other proteins screened in parallel", "value": "specifically enriched"}]}
